Laboratory results reported in ChEMBL document CHEMBL5154663, “Biotinylated curcumin as a novel chemosensitizer enhances naphthalimide-induced autophagic cell death in breast cancer cells” (Eur J Med Chem, 2022).
Values belong to the compound of their own block, whether it stands above or below them. Activity calls are given as the source filed them. The rule behind the calls is not given here.

Legend:
[1] = Octanol-water partition coefficient, logP of the compound; assay type: physicochemical
[2] = tested on: MCF7; experiment: Cytotoxicity against human MCF7 cells assessed as cell viability at 10 uM incubated for 48 hrs by MTT assay; assay type: toxicity, cell-based; conditions: mcf7, 48 h
[3] = tested on: MCF7; experiment: Potentiation of MCLOP induced antiproliferative activity against human MCF7 cells assessed as cell survial rate in presence of light irradiation at 10 uM and measured after 48 hrs by MTT assay; assay type: functional
[4] = Toxicity in BALB/c nude mouse xenografted with human MCF7 cells assessed as effect on body weight at 5 mg/kg, ip administered once daily for 15 days in presence of light irradiation; assay type: organism-based; conditions: in vivo, 360 h, time 15 day
[5] = tested on: B16-F10; experiment: Antiproliferative activity against mouse B16-F10 cells assessed as cell viability in light irradiation and measured for 48 hrs by MTT assay; assay type: functional, cell-based; conditions: B16-F10, light or radiation study
[6] = tested on: MCF7; experiment: Antiproliferative activity against human MCF7 cells assessed as cell viability in light irradiation and measured after 48 hrs by MTT assay; assay type: functional, cell-based; conditions: MCF7, light or radiation study
[7] = tested on: MCF7; experiment: Induction of ROS generation in human MCF7 cells assessed as increase in ROS level at 5 uM for 10 mins by DCFH-DA staining-based flow cytometry; assay type: functional
[8] = tested on: MCF7; experiment: Antiproliferative activity against human MCF7 cells assessed as cell viability in dark incubated for 48 hrs by MTT assay; assay type: functional, cell-based; conditions: MCF7, 48 h
[9] = tested on: MCF7; experiment: Induction of cell membrane permeability in human MCF7 cells at 5 uM in presence of light irradiation by confocal microscopy analysis; assay type: functional
[10] = tested on: B16-F10; experiment: Antiproliferative activity against mouse B16-F10 cells assessed as cell viability in dark incubated for 48 hrs by MTT assay; assay type: functional, cell-based; conditions: B16-F10, 48 h
[11] = tested on: MCF7; experiment: Potentiation of MCLOP induced autophagy in human MCF7 cells assessed as induction of autophagosomes formation by measuring increase LC3 puncta at 5 uM measured after 24 hrs by confocal microscopic analysis; assay type: functional, cell-based
[12] = tested on: MCF7; experiment: Potentiation of MCLOP induced antitumor activity against human MCF7 cells xenografted in Balb/c nude mouse assessed as tumor growth inhibition at 5 mg/kg, ip administered once daily for 15 days in presence of light irradiation; assay type: functional, organism-based; conditions: time 15.0 day
[13] = tested on: MCF7; experiment: Potentiation of MCLOP induced increase in HClO level in human MCF7 cells by fluorescence method; assay type: functional
[14] = tested on: MCF7; experiment: Potentiation of MCLOP induced ROS generation in human MCF7 cells assessed as increase in ROS level at 5 uM for 10 mins by DCFH-DA staining-based flow cytometry; assay type: functional
[15] = tested on: MCF7; experiment: Potentiation of MCLOP induced autophagy in human MCF7 cells assessed as decrease in p62 protein level at 5 uM measured after 24 hrs by western blot analysis; assay type: functional, cell-based
[16] = Toxicity in BALB/c nude mouse xenografted with human MCF cells assessed as MCLOP induced morphological changes in heart at 5 mg/kg, ip administered once daily for 15 days by H and E staining based analysis; assay type: organism-based; conditions: in vivo, 360 h, time 15 day
[17] = Toxicity in BALB/c nude mouse xenografted with human MCF cells assessed as MCLOP induced morphological changes in kidney at 5 mg/kg, ip administered once daily for 15 days by H and E staining based analysis; assay type: organism-based; conditions: in vivo, 360 h, time 15 day
[18] = Toxicity in BALB/c nude mouse xenografted with human MCF cells assessed as MCLOP induced morphological changes in liver at 5 mg/kg, ip administered once daily for 15 days by H and E staining based analysis; assay type: organism-based; conditions: in vivo, 360 h, time 15 day
[19] = Effect on HClO level in human MCF7 cells by fluorescence method; assay type: functional
[20] = Toxicity in BALB/c nude mouse xenografted with human MCF cells assessed as MCLOP induced morphological changes in lung at 5 mg/kg, ip administered once daily for 15 days by H and E staining based analysis; assay type: organism-based; conditions: in vivo, 360 h, time 15 day
[21] = tested on: MCF7; experiment: Potentiation of MCLOP induced cell membrane permeability in human MCF7 cells at 5 uM in presence of light irradiation by confocal microscopy analysis; assay type: functional
[22] = tested on: MCF7; experiment: Potentiation of MCLOP induced cell membrane permeability in human MCF7 cells at 5 uM in dark by confocal microscopy analysis; assay type: functional
[23] = Toxicity in BALB/c nude mouse xenografted with human MCF cells assessed as MCLOP induced morphological changes in spleen at 5 mg/kg, ip administered once daily for 15 days by H and E staining based analysis; assay type: organism-based; conditions: in vivo, 360 h, time 15 day
[24] = tested on: MCF7; experiment: Potentiation of MCLOP induced autophagy in human MCF7 cells assessed as increase in […] protein ratio level at 5 uM and measured after 24 hrs by western blot analysis; assay type: functional, cell-based

logP [1]: 2.04
Compound: COc1cc(/C=C/C(=O)CC(=O)/C=C/c2ccc(O)c(OC)c2)ccc1O [CURCUMIN]
Activity [2]: Non-Toxic
Activity [3]: 20%

IC50 [5]: 30.8 µM
IC50 [6]: 12.7 µM
IC50 [8]: > 40 µM
IC50 [10]: > 40 µM
Compound: CN(C)c1ccc2c(c1)Sc1cc(N(C)C)ccc1N2C(=O)NCCN1C(=O)c2cccc3cc([N+](=O)[O-])cc(c23)C1=O
Activity [4]: Non-Toxic
fold change (FC) [7]: 3.1
fold change (FC) [9]: 4.1

IC50 [5]: 5.48 µM
IC50 [6]: 10.6 µM
IC50 [8]: 14.6 µM
IC50 [10]: 7.02 µM
Compound: CN(C)c1ccc2nc3ccc(N(C)C)cc3[s+]c2c1 [METHYLENE BLUE ANHYDROUS]

logP [1]: 0.91
Compound: COc1cc(/C=C/C(=O)CC(=O)/C=C/c2ccc(OC(=O)CCCC[C@@H]3SC[C@@H]4NC(=O)N[C@@H]43)c(OC)c2)ccc1O
Activity [11]: Active
Activity [12]: Active
Activity [4]: Non-Toxic
fold change (FC) [13]: 2.2
fold change (FC) [14]: 5.6
Activity ([7]; DDE = dose-dependent effect): Dde
Activity [15]: Active
Activity [16]: Non-Toxic
Activity [17]: Non-Toxic
Activity [18]: Non-Toxic
fold change (FC) [19]: 2.3
Activity [20]: Non-Toxic
fold change (FC) [21]: 5.3
fold change (FC) [22]: 3
Activity [23]: Non-Toxic
Activity [24]: Active
